Experimental data: US20220372014A1, “NEUROPROTECTIVE COMPOUNDS AND METHODS OF USE THEREOF” (The Johns Hopkins University, priority 2019, published 2022)
Entries after “also recorded” stand apart in the source; their conditions may differ.

Tests used:
PAAN/MIF = target: T1, PAAN/MIF (Homo sapiens, UniProt P14174); test: In vitro PAAN/MIF nuclease assay (PS30 or RF substrate, PAGE gel, noncleaved substrate DNA); type: biochemical; conditions: RF and PS30 substrates
T1 construct: GST (N, cleaved yes); made in house; host or cells: Escherichia coli
T1 sequence (P14174 1-115): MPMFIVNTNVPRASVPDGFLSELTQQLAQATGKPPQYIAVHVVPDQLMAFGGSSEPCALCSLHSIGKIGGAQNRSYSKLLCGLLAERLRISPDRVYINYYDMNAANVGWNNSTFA
Description: Nuclease assay. Purified PAAN/MIF protein (4 μM) was incubated with compounds (10 μM) in the nuclease buffer [10 mM Tris-C1 (pH 7.0) and 10 mM MgCl2] for 20 m on ice. Then samples were added with 1 μM of PAAN/MIF substrate (PS30 or RF) and incubated for 1 h at 37° C. The reaction was terminated with loading buffer containing 10 mM EDTA and separated on 15% TBE-urea polyacrylamide (PAGE) gel or 20% TBE PAGE gel.
Purification of PAAN/MIF recombinant proteins. Human PAAN/MIF (NM_002415) cDNA and its variants were subcloned into pGEX-6β-1 vector (GE Healthcare) and mutants were generated using a QuikChange site-directed mutagenesis kit (Stratagene). The sequences were confirmed by automated DNA sequencing. The protein was expressed and purified from Escherichia coli by glutathione sepharose (GE Healthcare). The GST tag was subsequently proteolytically removed. GST protein was used as a negative control in the nuclease assay and PAAN/MIF proteins purified by FPLC using Superdex 200 10/300GL column (GE Healthcare, Life Sciences) were also used in the nuclease assays.

MIF = target: T2, MIF (Homo sapiens, UniProt P14174); test: Nuclease assay of Example 3 (MIF inhibitory activity, Table 4); type: biochemical; conditions: nuclease assay of Example 3
T2 sequence (P14174 1-115): T1 sequence (P14174 1-115)
Method in brief: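 Human genomic DNA (200 ng), pcDNA (200 ng) or PS^30-type substrates (1 μM) were incubated with MIF (0.25-8 μM final) in 10 mM Tris-HCl pH 7.0, 10 mM MgCl2, 1 mM DTT at 37 °C for 1 h (pcDNA, small substrates) or 4 h (genomic DNA). Cleavage was assessed by agarose or PAGE electrophoresis with EtBr staining and chemiluminescent detection of biotin-labelled DNA.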

COc1ccc(CC[C@H]2OC(=O)[C@@H]3CCCCN3C(=O)C(=O)C(C)(C)COC(=O)C=CCCN(C)C(=O)[C@@H]3CCCN3C(=O)[C@H](COC(C)(C)C)N(C)C(=O)C(c3ccccc3)NC(=O)[C@H](C)N(C)C(=O)COc3cc(F)cc2c3)cc1OC (mixture of isomers) [compound 121]
inhibition of PAAN/MIF nuclease activity (PAAN/MIF): inhibited | (%) inhibition of MIF nuclease activity (MIF): 71.2%

COc1ccc(CC[C@H]2OC(=O)[C@@H]3CCCCN3C(=O)C(=O)C(C)(C)COC(=O)C=CCCN(C)C(=O)[C@@H]3CCCN3C(=O)[C@H](COC(C)(C)C)N(C)C(=O)C(c3ccccc3)NC(=O)CN(C)C(=O)COc3cccc2c3)cc1OC (stereo partly drawn) [compound 41]
inhibition of PAAN/MIF nuclease activity (PAAN/MIF): prominently blocked | (%) inhibition of MIF nuclease activity (MIF): 82.0%

COc1ccc(CC[C@H]2OC(=O)[C@@H]3CCCCN3C(=O)C(=O)C(C)(C)COC(=O)C=CCCN(C)C(=O)[C@@H]3CCCN3C(=O)[C@H](COC(C)(C)C)N(C)C(=O)C(c3ccccc3)NC(=O)[C@H](C)N(C)C(=O)COc3cccc2c3)cc1OC (stereo partly drawn) [compound 56]
inhibition of PAAN/MIF nuclease activity (PAAN/MIF): prominently blocked; also recorded: inhibited | (%) inhibition of MIF nuclease activity (MIF): 70.8%

COc1ccc(CC[C@H]2OC(=O)[C@@H]3CCCCN3C(=O)C(=O)C(C)(C)COC(=O)C=CCCN(C)C(=O)CNC(=O)[C@H](C(C)C)N(C)C(=O)[C@@H](Cc3ccccc3)NC(=O)[C@H](CC(C)C)N(C)C(=O)CCC(=O)Nc3cccc2c3)cc1OC [compound 76]
inhibition of PAAN/MIF nuclease activity (PAAN/MIF): prominently blocked | (%) inhibition of MIF nuclease activity (MIF): 73.5%

COc1ccc(CC[C@H]2OC(=O)[C@@H]3CCCCN3C(=O)C(=O)C(C)(C)COC(=O)C=CCCN(C)C(=O)[C@H](C)NC(=O)[C@H](C(C)C)N(C)C(=O)[C@@H](Cc3ccccc3)NC(=O)[C@H](CC(C)C)N(C)C(=O)CCC(=O)Nc3cccc2c3)cc1OC [compound 77]
inhibition of PAAN/MIF nuclease activity (PAAN/MIF): prominently blocked | (%) inhibition of MIF nuclease activity (MIF): 75.5%

COc1ccc(CC[C@H]2OC(=O)[C@@H]3CCCCN3C(=O)C(=O)C(C)(C)COC(=O)C=CCCN(C)C(=O)[C@@H]3CCCN3C(=O)[C@H](CO)N(C)C(=O)C(c3ccccc3)NC(=O)[C@H](C)N(C)C(=O)COc3cccc2c3)cc1OC (stereo partly drawn) [compound 97]
inhibition of PAAN/MIF nuclease activity (PAAN/MIF): has no effect | (%) inhibition of MIF nuclease activity (MIF): −5.3%
